{
  "source": "paper PMC10241523",
  "about": "(The Journal of Venomous Animals and Toxins Including …, 2023)",
  "key": {"Kunming mice": {"system": "Kunming mice", "settings": "mouse, in vivo"}, "[1]": {"system": "voltage-gated calcium channels", "settings": "cited from earlier work"}, "calcium currents": {"system": "calcium currents", "settings": "cited from earlier work"}, "[2]": {"system": "sodium channel currents in rat DRG neurons", "type": "cell-based", "settings": "10 μM; n = 3"}, "[3]": {"system": "calcium channel currents in rat DRG neurons", "type": "cell-based", "settings": "10 μM"}, "human CaV2.2 (hCaV2.2)": {"system": "human CaV2.2 (hCaV2.2)", "type": "cell-based", "settings": "10 μM"}, "human NaV1.7 (hNaV1.7)": {"system": "human NaV1.7 (hNaV1.7)", "type": "cell-based", "settings": "10 μM"}, "human CaV1.2 (hCaV1.2) [4]": {"target": "T1, human CaV1.2 (hCaV1.2) (Homo sapiens, UniProt Q13936)", "T1 sequence (Q13936 whole entry, looked up)": "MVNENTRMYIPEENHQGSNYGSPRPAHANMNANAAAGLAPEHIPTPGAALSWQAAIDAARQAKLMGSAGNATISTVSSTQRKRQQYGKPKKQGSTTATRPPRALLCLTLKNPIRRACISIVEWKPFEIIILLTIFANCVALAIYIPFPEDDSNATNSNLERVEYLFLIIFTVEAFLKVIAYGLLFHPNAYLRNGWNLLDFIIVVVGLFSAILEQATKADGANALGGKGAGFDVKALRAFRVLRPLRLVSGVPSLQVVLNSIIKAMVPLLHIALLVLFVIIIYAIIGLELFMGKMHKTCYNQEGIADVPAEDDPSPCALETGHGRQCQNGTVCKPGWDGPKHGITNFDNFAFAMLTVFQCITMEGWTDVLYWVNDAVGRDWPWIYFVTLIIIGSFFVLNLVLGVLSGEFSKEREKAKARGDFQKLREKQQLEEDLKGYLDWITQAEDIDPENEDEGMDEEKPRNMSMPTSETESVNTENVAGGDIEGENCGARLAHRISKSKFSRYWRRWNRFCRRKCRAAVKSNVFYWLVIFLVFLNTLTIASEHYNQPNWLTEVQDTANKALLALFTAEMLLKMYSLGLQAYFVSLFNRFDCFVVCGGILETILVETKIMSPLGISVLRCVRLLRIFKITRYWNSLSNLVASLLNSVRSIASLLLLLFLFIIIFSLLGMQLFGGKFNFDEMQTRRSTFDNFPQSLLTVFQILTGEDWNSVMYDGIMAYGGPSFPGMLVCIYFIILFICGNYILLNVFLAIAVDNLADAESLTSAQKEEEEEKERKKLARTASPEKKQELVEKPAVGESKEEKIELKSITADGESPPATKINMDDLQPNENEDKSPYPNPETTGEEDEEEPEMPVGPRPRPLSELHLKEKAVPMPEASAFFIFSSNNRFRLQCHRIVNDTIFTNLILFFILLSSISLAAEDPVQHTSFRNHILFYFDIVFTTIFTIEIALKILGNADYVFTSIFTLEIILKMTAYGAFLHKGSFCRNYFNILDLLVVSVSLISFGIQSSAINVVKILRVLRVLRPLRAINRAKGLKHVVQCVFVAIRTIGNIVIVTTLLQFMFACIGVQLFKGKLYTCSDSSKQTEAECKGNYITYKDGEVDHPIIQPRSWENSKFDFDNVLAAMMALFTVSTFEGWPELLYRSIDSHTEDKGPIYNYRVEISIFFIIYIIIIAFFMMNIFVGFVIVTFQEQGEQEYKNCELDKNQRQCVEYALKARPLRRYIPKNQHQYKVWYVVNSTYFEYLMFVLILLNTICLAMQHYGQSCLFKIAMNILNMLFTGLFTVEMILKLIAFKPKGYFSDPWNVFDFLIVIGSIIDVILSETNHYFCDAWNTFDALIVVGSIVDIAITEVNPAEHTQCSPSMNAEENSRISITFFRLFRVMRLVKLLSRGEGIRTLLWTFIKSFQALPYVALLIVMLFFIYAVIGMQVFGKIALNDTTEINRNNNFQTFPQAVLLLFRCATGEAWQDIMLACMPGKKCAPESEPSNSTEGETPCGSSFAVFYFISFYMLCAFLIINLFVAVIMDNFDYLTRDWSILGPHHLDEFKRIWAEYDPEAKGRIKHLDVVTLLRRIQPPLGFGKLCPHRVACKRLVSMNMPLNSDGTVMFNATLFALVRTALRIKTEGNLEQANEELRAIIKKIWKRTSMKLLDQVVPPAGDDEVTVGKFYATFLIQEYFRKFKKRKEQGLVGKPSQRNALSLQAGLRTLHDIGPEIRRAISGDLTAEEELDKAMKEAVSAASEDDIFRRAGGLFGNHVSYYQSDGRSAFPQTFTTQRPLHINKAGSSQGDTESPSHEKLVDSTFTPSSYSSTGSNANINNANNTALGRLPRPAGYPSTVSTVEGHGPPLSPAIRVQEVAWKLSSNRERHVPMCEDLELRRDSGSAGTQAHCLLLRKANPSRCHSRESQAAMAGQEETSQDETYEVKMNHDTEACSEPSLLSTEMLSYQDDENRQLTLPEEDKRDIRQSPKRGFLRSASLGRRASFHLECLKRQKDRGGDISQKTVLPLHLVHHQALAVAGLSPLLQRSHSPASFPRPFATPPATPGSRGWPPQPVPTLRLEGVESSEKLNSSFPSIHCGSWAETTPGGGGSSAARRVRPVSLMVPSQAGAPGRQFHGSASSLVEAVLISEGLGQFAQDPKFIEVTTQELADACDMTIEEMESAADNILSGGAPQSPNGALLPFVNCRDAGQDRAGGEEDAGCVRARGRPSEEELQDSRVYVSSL", "assay": "cell-based", "settings": "HEK293, read-out: inhibition of hCaV1.2 currents"}, "[5]": {"system": "potassium channel currents in rat DRG neurons", "type": "cell-based", "settings": "10 μM"}, "human NaV1.3 (hNaV1.3)": {"system": "human NaV1.3 (hNaV1.3)", "type": "cell-based", "settings": "10 μM"}, "hNaV1.8": {"system": "hNaV1.8", "type": "cell-based, human"}, "human CaV1.2 (hCaV1.2) [6]": {"target": "T1, human CaV1.2 (hCaV1.2)", "settings": "pH 7.4"}, "ND7/23 cells": {"system": "ND7/23 cells", "settings": "48 h"}},
  "note": "Read-outs that look alike come from different tables or passages of the source. Where a SMILES comes first, the peptide text is derived from it. Bridges are numbered along the chain shown (N, C = ends).",
  "data": [
    {"compound": "Ziconotide", "values": [
      {"measurement": "analgesic effect compared with Tx6.7", "setting": "Kunming mice", "result": "better analgesic effect than Tx6.7"},
      {"measurement": "block of voltage-gated calcium channels (ω family)", "setting": "[1]", "result": "blockers of voltage-gated calcium channels"},
      {"measurement": "inhibition of calcium currents (ω family conotoxins)", "setting": "calcium currents", "result": "inhibiting calcium currents"}
    ]},
    {"compound": "CC[C@H](C)[C@H](NC(=O)[C@@H]1CSSC[C@@H]2NC(=O)[C@H](Cc3ccc(O)cc3)NC(=O)[C@H]([C@@H](C)CC)NC(=O)[C@H](C(C)C)NC(=O)CNC(=O)[C@H](CC(C)C)NC(=O)[C@H](CC(C)C)NC(=O)[C@H](CO)NC(=O)[C@H](C)NC(=O)[C@@H]3CCCN3C(=O)[C@@H]3CSSC[C@H](NC(=O)[C@H]([C@@H](C)CC)NC(=O)[C@H](CC(C)C)NC(=O)CNC(=O)[C@H](CCC(=O)O)NC(=O)[C@H](CSSC[C@H](NC(=O)[C@@H](N)CC(=O)O)C(=O)N[C@@H](Cc4c[nH]cn4)C(=O)N[C@@H](CCC(=O)O)C(=O)N[C@@H](CCCNC(=N)N)C(=O)N[C@@H](Cc4c[nH]c5ccccc45)C(=O)N[C@@H](CC(=O)O)C(=O)N[C@@H](Cc4c[nH]c5ccccc45)C(=O)N3)NC2=O)C(=O)N[C@@H](Cc2ccccc2)C(=O)N[C@@H]([C@@H](C)CC)C(=O)N[C@@H](C)C(=O)N[C@@H](Cc2ccccc2)C(=O)N1)C(=O)O", "note": "[Tx6.7] (H-DCHERWDWCPASLLGVIYCCEGLICFIAFCI-OH; disulfide 2-20, 9-25, 19-30)", "values": [
      {"measurement": "inhibitory effects on the sodium currents in rat DRG neurons", "setting": "[2]", "result": "no inhibitory effects"},
      {"measurement": "shift in the current-voltage relationship, sodium currents", "setting": "[2]", "result": "did not induce a shift in the current-voltage relationship"},
      {"measurement": "inhibition of peak calcium currents", "setting": "[3]", "result": "59.29 ± 2.34", "unit": "%"},
      {"measurement": "shift in the current-voltage relationship, calcium currents", "setting": "[3]; n = 3", "result": "did not induce a shift in the current-voltage relationship of calcium currents"},
      {"measurement": "inhibition of hCaV2.2 currents", "setting": "human CaV2.2 (hCaV2.2)", "result": "24.67 ± 0.91", "unit": "%"},
      {"measurement": "effects on hNaV1.7 currents", "setting": "human NaV1.7 (hNaV1.7)", "result": "no obvious effects"},
      {"measurement": "inhibition at 10 µM", "setting": "human CaV1.2 (hCaV1.2) [4]", "result": "56.6 ± 3.2", "unit": "%"},
      {"measurement": "pain threshold", "setting": "Kunming mice", "result": "increased"},
      {"measurement": "pain threshold increment percentage (maximum)", "setting": "Kunming mice", "result": 98.91, "unit": "%"},
      {"measurement": "time of maximum analgesic effect", "setting": "Kunming mice", "result": 2, "unit": "h"},
      {"measurement": "inhibition of peak potassium currents", "setting": "[5]", "result": "22.33 ± 7.81", "unit": "%"},
      {"measurement": "effects on hNaV1.3 currents", "setting": "human NaV1.3 (hNaV1.3)", "result": "no obvious effects"},
      {"measurement": "inhibition of hNaV1.8 currents", "setting": "hNaV1.8", "result": "7.30 ± 3.38", "unit": "%"},
      {"measurement": "IC50", "setting": "human CaV1.2 (hCaV1.2) [6]", "result": "9.63 ± 1.12", "unit": "µM"},
      {"measurement": "cytotoxicity against ND7/23 cells", "setting": "ND7/23 cells", "result": "no significant cytotoxicity"},
      {"measurement": "Cell viability", "setting": "ND7/23 cells; 0.01 μM", "result": 101.95, "unit": "%"},
      {"measurement": "Cell viability", "setting": "ND7/23 cells; 0.1 μM", "result": 105.01, "unit": "%"},
      {"measurement": "Cell viability", "setting": "ND7/23 cells; 1 μM", "result": 99.18, "unit": "%"},
      {"measurement": "Cell viability", "setting": "ND7/23 cells; 10 μM", "result": 98.60, "unit": "%"},
      {"measurement": "Cell viability", "setting": "ND7/23 cells; 100 μM", "result": 94.80, "unit": "%"},
      {"measurement": "Cell viability at all detected concentrations", "setting": "ND7/23 cells; 100 μM", "result": "more than 94%"}
    ]}
  ]
}
